Like-named read-outs stand apart in the source and are kept apart here.
Experiments:
[1] = target: hemagglutinin (BHA), fusion peptide exposure (Influenza A virus (A/X-31(H3N2)), UniProt P03438); format: biochemical, C22 / X31 influenza virus (H3N2)
in vitro = details: dog, mdck
Description: The ELISA-based assay described below (EIA antiviral assay) was used to measure antiviral activity. Cell viability was measured in parallel to distinguish inhibition of viral replication from toxicity.
Infections of MDCK2 cells with virus, compounds, and DMSO were set up identically as for the EIA assay. Following the 15 hour incubation, test compounds were washed away with PBS. 50 μl of MDCK2 growth media and 25 μl 2 mg/ml 3-(4,5-dimethylthiazol-2-yl)-2,5-diphenyl tetrazolium bromide (Sigma) in PBS were added to each well. Plates were returned to 37° C., 5% CO2 for 4 hrs. Crystals were broken up by vigorous mixing following addition of 80 μl isopropanol/0.04 N HCl. After incubation for 30 mins at RT, OD570 was read on an ELISA reader. % Inhibition is the % reduction of OD570 in the wells infected with compound compared to otherwise identical samples with compound omitted.

low pH BHA = assay: SPA POST control (nonspecific quenching); design: species or system C22 / X31 influenza virus (H3N2)
Description: The compounds being screened by SPA are present during scintillation counting. Some of the chemicals, particularly those that are highly colored, quench the detection of radioactivity. A control ("POST") distinguishes whether apparent inhibition arises from inhibition of the conformational change or from nonspecific effects. The test compound is added to a sample of BHA that had previously been acidified and reneutralized. The mixture is then precipitated as usual. Since the BHA treated in this manner is known to be in the low pH conformation, a reduction in measurable cpm compared to controls with ligand omitted proves the compound interferes with the detection system.
^3 H-Leu BHA was diluted to 10,000 cpm (counts per minute) per 200 μl in MSSH buffer (10 mM HEPES, 10 mM MES, 10 mM succinate, 0.10 M NaCl, pH 7.0) containing 0.1% NP40. Protein was incubated with the specified concentration of trial compound for 25 minutes at RT. The same volume of solvent used to dissolve the compound was added to control samples and the final concentration of DMSO in all solutions was 0.67% v/v. A predetermined amount of 1N HAc was added to bring the reactions to the appropriate pH (usually pH 5.0). Following a 5 minute (unless specified otherwise) incubation at RT, reactions were reneutralized with 1N NaOH. For POST controls, compounds were added to the appropriate concentration after reneutralization. 200 μL aliquots of the protein solution were added to scintillation vials containing 100 μl protein A-SPA beads (Amersham), 5% fetal bovine serum (FBS), and antibody. Vials were incubated overnight at RT with constant shaking. Each reaction used 10 μl of fusion peptide antiserum diluted 1:10 with 50% glycerol. Cpm were detected in a Beckman LS3801 scintillation counter without addition of liquid scintillant.
Apparent inhibition due to nonspecific effects was quantitated from the POST controls with the equation:
observed cpm=true cpm*quench factor

C22 virus in MDCK2 cells [2] = assay: microbe, parasite or virus in culture; details: unidentified influenza virus; for inhibition at 1 µM / inhibition at 10 µM / inhibition at 100 µM: MDCK2, 15 h, read-out: infectivity % inhibition
[3] = system: hemagglutinin-mediated hemolysis of human red blood cells; assay: Hemolysis (HEM) assay; format: cell-based, C22 influenza virus; human red blood cells; details: for IC50 / inhibition at 1000 µM / inhibition at 100 µM / inhibition at 10 µM / inhibition at 1 µM: unidentified influenza virus, Erythrocyte; for inhibition at 1 µM: log conc -6 (M)
hemoglobin = assay: Hb control (quenching of OD570 of hemoglobin); design: species or system human
C22 virus in MDCK2 cells [4] = system: C22 virus in MDCK2 cells
[5] = MDCK2, read-out: INF, negative log of IC50 (preliminary results) (converted)
[6] = Table 7, preliminary results, read-out: HEM, negative log of IC50 (preliminary results) (converted)
[7] = log conc -3 (M), read-out: hemolysis % ↓ OD
[8] = log conc -4 (M), read-out: hemolysis % ↓ OD
[9] = log conc -5 (M), read-out: hemolysis % ↓ OD
[10] = 0.25 h, Table 6, 10^-3 = 1 mM, low pH 15 minutes, read-out: IC50 hemolysis

hemagglutinin (BHA), fusion peptide exposure (Influenza A virus (A/X-31(H3N2)), UniProt P03438), sequence (P03438 whole entry, looked up, the tested form may be a part): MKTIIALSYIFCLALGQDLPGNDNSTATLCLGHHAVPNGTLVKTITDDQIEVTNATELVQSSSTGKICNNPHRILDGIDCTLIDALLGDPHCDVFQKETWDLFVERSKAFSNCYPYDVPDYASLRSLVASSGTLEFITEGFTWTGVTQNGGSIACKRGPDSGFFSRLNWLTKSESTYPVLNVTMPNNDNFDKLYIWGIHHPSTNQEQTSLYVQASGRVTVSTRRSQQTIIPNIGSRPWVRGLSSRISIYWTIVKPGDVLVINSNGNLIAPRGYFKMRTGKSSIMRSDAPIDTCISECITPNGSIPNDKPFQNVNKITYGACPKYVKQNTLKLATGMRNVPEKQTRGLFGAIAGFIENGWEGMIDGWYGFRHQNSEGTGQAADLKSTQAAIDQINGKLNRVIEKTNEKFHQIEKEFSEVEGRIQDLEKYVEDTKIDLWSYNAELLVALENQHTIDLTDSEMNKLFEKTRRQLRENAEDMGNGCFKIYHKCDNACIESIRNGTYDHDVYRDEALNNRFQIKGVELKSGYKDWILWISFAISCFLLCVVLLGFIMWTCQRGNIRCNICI

ClC1(Cl)C2CC3C4C=CC(C4)C3C21 (stereo not shown) [Compound 92, 5,5-dichlorotetracyclo-[6.2.1.0,2,7.0.4.6] undec-9-ene]
inhibition in the SPA assay ([1]; 1 μM-1 mM): showed no inhibition

Oc1cccc2cccnc12 [Compound 127, 8-hydroxyquinoline]
activity note in Table 7 [1]: inactive
inhibition in the SPA assay [1]: showed no inhibition

O=C1C=CC(=O)c2c(O)cccc21 [Compound 119, 5-hydroxy-1,4-naphthoquinone]
inhibition in the SPA assay ([1]; 1 μM-1 mM): showed no inhibition
activity note in Table 7 ([1]; Table 7): inactive
cytotoxicity at 15 h, 100 µM (in vitro): 97.8%

O=C(O)C1C2C=CC(O2)C1C(=O)O (stereo not shown) [Compound 86, 3,6-endoxo-1,2,3,6-tetrahydrophthalic acid]
inhibition in the SPA assay ([1]; 1 μM-1 mM): showed no inhibition
activity note in Table 7 ([1]; Table 7): inactive

Oc1ccc(O)c2c1C1C=CC2C1 [Compound 83A, 5,8-dihydro-5,8-methano-1,4-naphthalenediol]
% inhibition, POST control (low pH BHA; log conc -3 (M)): 0.5 ± 1.1%
% inhibition, POST control (low pH BHA; log conc -4 (M)): -0.9 ± 1.5%
% inhibition, POST control (low pH BHA; log conc -5 (M)): -0.5%
% inhibition, POST control (low pH BHA; log conc -6 (M)): 10.8%
SPA activity [1]: significantly higher activity

COC(=O)C1C2C=CC(C2)C1C(=O)OC (stereo not shown) [Compound 85, dimethylbicyclo[2.2.1]-5-heptene-2,3-dicarboxylate]
inhibition in the SPA assay ([1]; 1 μM-1 mM): showed no inhibition

COC(=O)C1C2C=CC(C2)C1C(=O)O (stereo not shown) [Compound 87, 5-norbornene-2,3-dicarboxylic acid monomethyl ester]
inhibition in the SPA assay ([1]; 1 μM-1 mM): showed no inhibition

OC1=CCC2C3C=CC(C3)C12 (stereo not shown) [Compound 109, hydroxydicyclopentadiene]
inhibition in the SPA assay ([1]; 1 μM-1 mM): showed no inhibition
activity note in Table 7 ([1]; Table 7): inactive

O=C1NC(=O)c2ccccc21 [Compound 100, phthalimide]
inhibition in the SPA assay ([1]; 1 μM-1 mM): showed no inhibition
activity note in Table 7 ([1]; Table 7): inactive

COC(=O)C1C=CCC2C(=O)C=CC(=O)C12 (stereo not shown) [Compound 97, methyl 5,8-dioxo-1,4,4A,5,8,8A-hexahydro-1-naphthalenecarboxylate]
inhibition at 1 µM (C22 virus in MDCK2 cells [2]): -4.7 ± 9.4%
inhibition at 10 µM (C22 virus in MDCK2 cells [2]): 92.6 ± 12.7%
IC50 (C22 virus in MDCK2 cells [2]; [5]): 1 to 10 µM
inhibition of hemolytic activity [3]: apparently inhibited hemolytic activity
IC50 [3, 6]: 100 µM
inhibition at 1000 µM [3, 7]: 102 ± 5.8%
inhibition at 100 µM [3, 8]: 94.6%
inhibition at 10 µM [3, 9]: 23.7%
inhibition at 1 µM ([3]; read-out: hemolysis % ↓ OD): 6.6%
Hb control % ↓ OD (hemoglobin; log conc -3 (M)): 55.0 ± 13.3%
Hb control % ↓ OD (hemoglobin; log conc -4 (M)): 37.6 ± 4.9%
Hb control % ↓ OD (hemoglobin; log conc -5 (M)): 31%
Hb control % ↓ OD (hemoglobin; log conc -6 (M)): 13.0%
cytotoxicity at 15 h, 1 µM (in vitro): -3.1 ± 7.9%
cytotoxicity at 15 h, 10 µM (in vitro): 32.9 ± 30.9%
cytotoxicity at 15 h, 100 µM (in vitro): 95.9 ± 8%

O=C(O)C1C2C=CC(C2)C1C(=O)Nc1ccccc1 (stereo not shown) [Compound 98, 3-(N-phenylcarbamoyl)-5-norbornen-2-carboxylic acid]
inhibition in the SPA assay ([1]; 1 μM-1 mM): showed no inhibition

CCOC(=O)c1c(C)cc(O)cc1O [Compound 122, ethyl 2,4-dihydroxy-6-methylbenzoate]
inhibition in the SPA assay ([1]; 1 μM-1 mM): showed no inhibition
activity note in Table 7 ([1]; Table 7): inactive

Oc1ccc(O)cc1 [Compound 104, hydroquinone]
activity note in Table 7 [1]: inactive
inhibition in the SPA assay [1]: showed no inhibition

Oc1cccc2ccccc12 [Compound 106, 1-naphthol]
inhibition in the SPA assay ([1]; 1 μM-1 mM): showed no inhibition
activity note in Table 7 ([1]; Table 7): inactive

N#Cc1c(O)ccc(O)c1C#N [Compound 103, 2,3-dicyanohydroquinone]
inhibition in the SPA assay ([1]; 1 μM-1 mM): showed no inhibition
activity note in Table 7 ([1]; Table 7): inactive

Oc1cccc2c(O)cccc12 [Compound 126, 1,5-naphthalenediol]
inhibition at 1 µM (C22 virus in MDCK2 cells [2]): 3.8 ± 5.5%
inhibition at 10 µM (C22 virus in MDCK2 cells [2]): 7.4 ± 1.8%
inhibition at 100 µM (C22 virus in MDCK2 cells [2]): 35.6 ± 0.6%
IC50 (C22 virus in MDCK2 cells [2]; MDCK2, read-out: IC50 infectivity): > 100 µM
IC50 (C22 virus in MDCK2 cells [2]; MDCK2, read-out: INF, negative log of IC50 (converted)): > 100 µM
inhibition of hemolytic activity [3]: apparently inhibited hemolytic activity
IC50 [3, 10]: 1000 µM
IC50 ([3]; Table 7, read-out: HEM, negative log of IC50 (converted)): 1000 µM
inhibition at 1000 µM [3, 7]: 101 ± 7.6%
Hb control % ↓ OD (hemoglobin; log conc -3 (M)): 54.4 ± 3.7%
cytotoxicity at 15 h, 1 µM (in vitro): -6.9 ± 4%
cytotoxicity at 15 h, 10 µM (in vitro): -9.2 ± 0.6%
cytotoxicity at 15 h, 100 µM (in vitro): -7.6 ± 7.3%

OC1CC2CC1C1C3C=CC(C3)C21 (stereo not shown) [Compound 96, 1,2,3,4,4A,5,8,8A-octahydro-1,4:5,8-dimethano-2-naphthol]
inhibition in the SPA assay ([1]; 1 μM-1 mM): showed no inhibition

Oc1ccc2ccccc2c1O [Compound 124, 1,2-dihydroxynaphthalene]
infectivity in Table 6 (C22 virus in MDCK2 cells [4]; Table 6): toxic
INF, words (Table 7) (C22 virus in MDCK2 cells [4]; Table 7): toxic
cytotoxicity at 15 h, 100 µM (in vitro): 80.5%

O=c1[nH][nH]c(=O)c2ccccc12 [Compound 108, phthalhydrazide]
inhibition in the SPA assay ([1]; 1 μM-1 mM): showed no inhibition
activity note in Table 7 ([1]; Table 7): inactive

O=C(O)[C@@H]1[C@H](C(=O)O)[C@@H]2C=C[C@H]1C2 [Compound 89, cis-5-norbornene-endo-2,3-dicarboxylic acid]
inhibition in the SPA assay ([1]; 1 μM-1 mM): showed no inhibition
activity note in Table 7 ([1]; Table 7): inactive

CN1C(=O)C2C3C=CC(C3)C2C1=O (stereo not shown) [Compound 95, N-methyl-5-norbornene-2,3-dicarboximide]
inhibition in the SPA assay ([1]; 1 μM-1 mM): showed no inhibition
activity note in Table 7 ([1]; Table 7): inactive

Cl.N=C(N)Sc1cc(O)ccc1O [Compound 112, 2-(2,5-dihydroxyphenyl)-2-thiopseudourea hydrochloride]
% inhibition, sample [1]: 40.1%

Cl.Nc1ccc(O)c2ccccc12 [Compound 121, 4-amino-1-naphthol hydrochloride]
INF, words (Table 7) (C22 virus in MDCK2 cells [4]): toxic
infectivity in Table 6 (C22 virus in MDCK2 cells [4]): toxic
IC50 ([3]; 0.25 h, read-out: IC50 hemolysis): ≥ 1000 µM
IC50 ([3]; read-out: HEM, negative log of IC50 (converted)): ≥ 1000 µM
inhibition at 10 µM ([3]; read-out: hemolysis % ↓ OD): -4.6 ± 0.1%
inhibition at 100 µM ([3]; read-out: hemolysis % ↓ OD): 31.5 ± 7.8%
inhibition at 1000 µM ([3]; read-out: hemolysis % ↓ OD): 116%
Hb control % ↓ OD (hemoglobin): 68.0%
cytotoxicity at 15 h, 100 µM (in vitro): 100%

CC(=O)OC1CC2CC1C1C3C=CC(C3)C21 (stereo not shown) [Compound 88, 1,2,3,4,4A,5,8,8A-octahydro-1,4:5,8-dimethanonaphth-2-yl acetate]
inhibition in the SPA assay ([1]; 1 μM-1 mM): showed no inhibition
activity note in Table 7 ([1]; Table 7): inactive

O=C1C2C3C=CC(C3)C2C(=O)N1O (stereo not shown) [Compound 94, N-hydroxy-5-norbornene-2,3-dicarboximide]
inhibition in the SPA assay ([1]; 1 μM-1 mM): showed no inhibition
activity note in Table 7 ([1]; Table 7): inactive

O=C1C=C(Br)C(=O)c2ccccc21 [Compound 135, 2-bromo-1,4-naphthoquinone]
inhibition of hemolytic activity [3]: did not
IC50 [3, 10]: > 1000 µM
inhibition at 1000 µM [3, 7]: 80.3%
Hb control % ↓ OD (hemoglobin; log conc -3 (M)): 75.2%

CC1=CC(=O)c2ccccc2C1=O [Compound 118, 2-methyl-1,4-naphthoquinone]
inhibition in the SPA assay ([1]; 1 μM-1 mM): showed no inhibition
activity note in Table 7 ([1]; Table 7): inactive

O=C(O)C1C=CCC2C(=O)C=CC(=O)C12 (stereo not shown) [Compound 91, 5,8-dioxo-1,4,4A,5,8,8A-hexahydro-1-naphthalene carboxylic acid]
inhibition at 1 µM (C22 virus in MDCK2 cells [2]): -1.3 ± 4%
inhibition at 10 µM (C22 virus in MDCK2 cells [2]): 6.5 ± 7%
inhibition at 100 µM (C22 virus in MDCK2 cells [2]): 70.9 ± 39.8%
IC50 (C22 virus in MDCK2 cells [2]; [5]): 10 to 100 µM
% inhibition, POST control (low pH BHA; log conc -3 (M)): 54.5%
inhibition of hemolytic activity [3]: apparently inhibited hemolytic activity
inhibition at 100 µM ([3]; 0.1 mM, pH 5.0, FIG. 8, read-out: Maximum inhibition of hemolysis): 61%
IC50 [3, 6]: 100 to 1000 µM
inhibition at 1000 µM [3, 7]: 91 ± 14.6%
inhibition at 100 µM [3, 8]: 60.5 ± 0.7%
inhibition at 10 µM [3, 9]: 13.2%
inhibition at 1 µM ([3]; read-out: hemolysis % ↓ OD): -5.1%
Hb control % ↓ OD (hemoglobin; log conc -3 (M)): 29.6 ± 2.5%
Hb control % ↓ OD (hemoglobin; log conc -4 (M)): 26.8 ± 5.0%
Hb control % ↓ OD (hemoglobin; log conc -5 (M)): 11%
Hb control % ↓ OD (hemoglobin; log conc -6 (M)): 3%
cytotoxicity at 15 h, 1 µM (in vitro): -0.06 ± 5.1%
cytotoxicity at 15 h, 10 µM (in vitro): -2 ± 9.4%
cytotoxicity at 15 h, 100 µM (in vitro): -4.3 ± 7%

Source: patent publication US6080791A, “Method of treating a viral condition by inhibiting membrane fusion” (priority 1992, dated 2000)
